Experiment: xn = mol fraction of the nth substance listed
Conditions: 101 kPa

CCCCCC[n+]1ccn(C)c1.F[P-](F)(F)(F)(F)F + CC(C)O
speed of sound [m/s]
Conditions	x1 = 0.0011	x1 = 0.0019	x1 = 0.0024	x2 = 0	x2 = 0.0067	x2 = 0.074	x2 = 0.189	x2 = 0.3042	x2 = 0.3877	x2 = 0.5107
293.15 K	1157	–	–	–	1437	1427	1408	1388	–	–
298.15 K	1140	1141	1141	1424	1423	1413	1396	1375	–	1325
303.15 K	1122	1124	1124	1411	1410	–	1383	1363	1346	1313

CCCC[n+]1ccn(C)c1.F[P-](F)(F)(F)(F)F + CC(C)O
speed of sound [m/s]
Conditions	x1 = 0.0008	x1 = 0.0011	x2 = 0	x2 = 0.0458	x2 = 0.1055	x2 = 0.1825	x2 = 0.2864
293.15 K	1156	–	1455	–	1441	1429	1409
298.15 K	1139	1140	1443	1437	1429	1417	1397
303.15 K	–	1122	1431	1425	1417	1405	1385

COS(=O)(=O)[O-].Cn1cc[n+](C)c1 + CC(C)O
speed of sound [m/s]
Conditions	293.15 K	298.15 K	303.15 K
x2 = 0	1826	1813	–
x2 = 0.0498	1807	1797	1785
x2 = 0.0958	1791	1777	–
x2 = 0.2008	–	1729	1720
x2 = 0.3063	1684	1670	1662
x2 = 0.4013	1611	1605	1602
x2 = 0.4957	1525	1534	1534
x2 = 0.5945	–	1444	1459
x2 = 0.7039	1338	1352	1370
x2 = 0.8013	1269	1271	1292
x2 = 0.9019	–	1198	1207
x2 = 0.951	–	1167	1166

CCCC[n+]1ccn(C)c1.F[P-](F)(F)(F)(F)F + CCC(C)=O
speed of sound [m/s]
Conditions	293.15 K	298.15 K	303.15 K
x2 = 0	1455	1443	1431
x2 = 0.0509	1449	1438	–
x2 = 0.0987	1444	1433	1419
x2 = 0.1907	1433	1421	–
x2 = 0.2915	1418	1408	1393
x2 = 0.4057	1399	1390	1374
x2 = 0.5074	1380	1369	1349
x2 = 0.5956	–	–	1322
x2 = 0.7008	–	–	1292
x2 = 0.7919	1301	1286	1260
x2 = 0.8942	1265	1248	1220
x2 = 0.9467	–	1224	1195

COS(=O)(=O)[O-].Cn1cc[n+](C)c1 + CCC(C)=O
speed of sound [m/s]
Conditions	x1 = 0.0006	x1 = 0.0012	x1 = 0.0029	x2 = 0	x2 = 0.0257	x2 = 0.0716	x2 = 0.2017	x2 = 0.2926
293.15 K	1214	–	1217	1826	1819	1803	1750	1703
298.15 K	1194	1195	–	–	–	1791	1737	1689
303.15 K	–	1165	1168	1801	–	–	1724	1676

CCOC(C)=O + CCCCCCCC[n+]1ccn(C)c1.F[P-](F)(F)(F)(F)F
x1 = 1
Conditions	speed of sound [m/s]
298.15 K	1141
303.15 K	1111

CC(C)O + CCCC[n+]1ccn(C)c1.F[P-](F)(F)(F)(F)F
x1 = 1
Conditions	speed of sound [m/s]
293.15 K	1156
303.15 K	1121

CCC(C)=O + CCCC[n+]1ccn(C)c1.F[P-](F)(F)(F)(F)F
Conditions	speed of sound [m/s]
303.15 K, x1 = 1	1163

CCOC(C)=O + CCCC[n+]1ccn(C)c1.F[P-](F)(F)(F)(F)F
Conditions	speed of sound [m/s]
293.15 K, x1 = 1	1162

CCCCCCCC[n+]1ccn(C)c1.F[P-](F)(F)(F)(F)F + CCOC(C)=O
speed of sound [m/s]
Conditions	293.15 K	298.15 K	303.15 K
x2 = 0	1424	1408	1393
x2 = 0.0048	–	1408	–
x2 = 0.0967	1408	1393	1379
x2 = 0.1981	1391	1377	1364
x2 = 0.2967	1375	1361	1348
x2 = 0.3954	1358	1344	1330
x2 = 0.5056	1337	1323	–
x2 = 0.6061	1315	1299	1284
x2 = 0.7059	1288	1271	1253
x2 = 0.8004	–	1236	1218
x2 = 0.9036	1209	1189	1169
x2 = 0.9453	1189	–	1147

CCCC[n+]1ccn(C)c1.F[P-](F)(F)(F)(F)F + CCOC(C)=O
speed of sound [m/s]
Conditions	293.15 K	298.15 K	303.15 K
x2 = 0	1455	1443	1431
x2 = 0.0501	1447	1436	1420
x2 = 0.1003	1438	1427	–
x2 = 0.1854	1421	1412	1401
x2 = 0.3	–	1391	1378
x2 = 0.4064	1379	1366	1354
x2 = 0.5117	1350	–	–
x2 = 0.6032	1319	1310	1291
x2 = 0.7061	1280	–	–
x2 = 0.802	1240	1228	1207
x2 = 0.9021	–	1180	1160
x2 = 0.948	–	1162	1137

COS(=O)(=O)[O-].Cn1cc[n+](C)c1 + CCOC(C)=O
speed of sound [m/s]
Conditions	x2 = 0	x2 = 0.0509	x2 = 0.0706	x2 = 0.0928	x2 = 0.1254	x2 = 0.1451
293.15 K	1826	1808	–	1792	1775	1765
298.15 K	1813	1795	1789	1778	1765	1752
303.15 K	1801	1782	1777	1764	1746	–

CC(C)O + COS(=O)(=O)[O-].Cn1cc[n+](C)c1
x1 = 1
Conditions	speed of sound [m/s]
293.15 K	1156
303.15 K	1121

CCC(C)=O + COS(=O)(=O)[O-].Cn1cc[n+](C)c1
x1 = 1
Conditions	speed of sound [m/s]
293.15 K	1212
303.15 K	1163

CCOC(C)=O + COS(=O)(=O)[O-].Cn1cc[n+](C)c1
x1 = 1
Conditions	speed of sound [m/s]
293.15 K	1162
303.15 K	1111

From a compilation of properties of binary mixtures (doi:10.1021/je060497d)
